Assay results as given in PubChem BioAssay (NCI).
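Exposure lasted 48 hours, with cells grown in 96-well plates and compounds tested at five concentrations. GI50 marks 50% less growth. The concentration for full growth arrest is given as TGI.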

Assays:
Test in all cases: growth of human tumour cells (NCI), 48 h
786-0 renal = tested on: 786-0 renal
A549 NSCLC = tested on: A549 NSCLC
ACHN renal = tested on: ACHN renal
CAKI-1 renal = tested on: CAKI-1 renal
CCRF-CEM leukemia = tested on: CCRF-CEM leukemia
COLO 205 colon = tested on: COLO 205 colon
DU-145 prostate = tested on: DU-145 prostate
EKVX NSCLC = tested on: EKVX NSCLC
HCT-116 colon = tested on: HCT-116 colon
HCT-15 colon = tested on: HCT-15 colon
HL-60(TB) leukemia = tested on: HL-60(TB) leukemia
HOP-62 NSCLC = tested on: HOP-62 NSCLC
HOP-92 NSCLC = tested on: HOP-92 NSCLC
HS 578T breast = tested on: HS 578T breast
HT29 colon = tested on: HT29 colon
IGROV1 ovarian = tested on: IGROV1 ovarian
K-562 leukemia = tested on: K-562 leukemia
KM12 colon = tested on: KM12 colon
LOX IMVI melanoma = tested on: LOX IMVI melanoma
M14 melanoma = tested on: M14 melanoma
MALME-3M melanoma = tested on: MALME-3M melanoma
MCF7 breast = tested on: MCF7 breast
MDA-MB-231 breast = tested on: MDA-MB-231 breast
MDA-MB-435 = tested on: MDA-MB-435
MDA-N = tested on: MDA-N
MOLT-4 leukemia = tested on: MOLT-4 leukemia
NCI-H226 lung = tested on: NCI-H226 lung
NCI-H23 lung = tested on: NCI-H23 lung
NCI-H460 lung = tested on: NCI-H460 lung
NCI-H522 lung = tested on: NCI-H522 lung
NCI/ADR-RES ovarian = tested on: NCI/ADR-RES ovarian
OVCAR-3 ovarian = tested on: OVCAR-3 ovarian
OVCAR-4 ovarian = tested on: OVCAR-4 ovarian
OVCAR-5 ovarian = tested on: OVCAR-5 ovarian
OVCAR-8 ovarian = tested on: OVCAR-8 ovarian
PC-3 prostate = tested on: PC-3 prostate
RPMI-8226 leukemia = tested on: RPMI-8226 leukemia
RXF 393 renal = tested on: RXF 393 renal
SF-268 CNS = tested on: SF-268 CNS
SF-295 CNS = tested on: SF-295 CNS
SF-539 CNS = tested on: SF-539 CNS
SK-MEL-2 melanoma = tested on: SK-MEL-2 melanoma
SK-MEL-28 melanoma = tested on: SK-MEL-28 melanoma
SK-MEL-5 melanoma = tested on: SK-MEL-5 melanoma
SK-OV-3 ovarian = tested on: SK-OV-3 ovarian
SN12C renal = tested on: SN12C renal
SNB-19 CNS = tested on: SNB-19 CNS
SNB-75 CNS = tested on: SNB-75 CNS
SR leukemia = tested on: SR leukemia
SW-620 colon = tested on: SW-620 colon
T-47D breast = tested on: T-47D breast
TK-10 renal = tested on: TK-10 renal
U251 CNS = tested on: U251 CNS
UACC-257 melanoma = tested on: UACC-257 melanoma
UACC-62 melanoma = tested on: UACC-62 melanoma
UO-31 renal = tested on: UO-31 renal
A498 renal = tested on: A498 renal
BT-549 breast = tested on: BT-549 breast
HCC-2998 colon = tested on: HCC-2998 colon

Structure (SMILES): Cc1cc(=O)oc2c(CNC(C(=O)O)C(C)O)c(O)ccc12 (stereo unspecified)
- TGI (786-0 renal): > 100 µM
- TGI (A549 NSCLC): > 100 µM
- TGI (ACHN renal): > 100 µM
- TGI (CAKI-1 renal): > 100 µM
- TGI (CCRF-CEM leukemia): > 100 µM
- TGI (COLO 205 colon): > 100 µM
- TGI (DU-145 prostate): > 100 µM
- TGI (EKVX NSCLC): > 100 µM
- TGI (HCT-116 colon): > 100 µM
- TGI (HCT-15 colon): > 100 µM
- TGI (HL-60(TB) leukemia): > 100 µM
- TGI (HOP-62 NSCLC): > 100 µM
- TGI (HOP-92 NSCLC): > 100 µM
- TGI (HS 578T breast): > 100 µM
- TGI (HT29 colon): > 100 µM
- TGI (IGROV1 ovarian): > 100 µM
- TGI (K-562 leukemia): > 100 µM
- TGI (KM12 colon): > 100 µM
- TGI (LOX IMVI melanoma): > 100 µM
- TGI (M14 melanoma): > 100 µM
- TGI (MALME-3M melanoma): > 100 µM
- TGI (MCF7 breast): > 100 µM
- TGI (MDA-MB-231 breast): > 100 µM
- TGI (MDA-MB-435): > 100 µM
- TGI (MDA-N): > 100 µM
- TGI (MOLT-4 leukemia): > 100 µM
- TGI (NCI-H226 lung): > 100 µM
- TGI (NCI-H23 lung): > 100 µM
- TGI (NCI-H460 lung): > 100 µM
- TGI (NCI-H522 lung): > 100 µM
- TGI (NCI/ADR-RES ovarian): > 100 µM
- TGI (OVCAR-3 ovarian): > 100 µM
- TGI (OVCAR-4 ovarian): > 100 µM
- TGI (OVCAR-5 ovarian): > 100 µM
- TGI (OVCAR-8 ovarian): > 100 µM
- TGI (PC-3 prostate): > 100 µM
- TGI (RPMI-8226 leukemia): > 100 µM
- TGI (RXF 393 renal): > 100 µM
- TGI (SF-268 CNS): > 100 µM
- TGI (SF-295 CNS): > 100 µM
- TGI (SF-539 CNS): > 100 µM
- TGI (SK-MEL-2 melanoma): > 100 µM
- TGI (SK-MEL-28 melanoma): > 100 µM
- TGI (SK-MEL-5 melanoma): > 100 µM
- TGI (SK-OV-3 ovarian): > 100 µM
- TGI (SN12C renal): > 100 µM
- TGI (SNB-19 CNS): > 100 µM
- TGI (SNB-75 CNS): > 100 µM
- TGI (SR leukemia): > 100 µM
- TGI (SW-620 colon): > 100 µM
- TGI (T-47D breast): > 100 µM
- TGI (TK-10 renal): > 100 µM
- TGI (U251 CNS): > 100 µM
- TGI (UACC-257 melanoma): > 100 µM
- TGI (UACC-62 melanoma): > 100 µM
- TGI (UO-31 renal): > 100 µM

Structure (SMILES): N#CSCC(=O)c1ccc(Cl)cc1
- GI50 (786-0 renal): 4.96 µM
- TGI (786-0 renal): 21.3 µM
- GI50 (A498 renal): 5.59 µM
- TGI (A498 renal): 20.9 µM
- GI50 (A549 NSCLC): 9.14 µM
- TGI (A549 NSCLC): > 49.7 µM
- GI50 (ACHN renal): 5.55 µM
- TGI (ACHN renal): 19.9 µM
- GI50 (BT-549 breast): 2.69 µM
- TGI (BT-549 breast): 11.4 µM
- GI50 (CAKI-1 renal): 0.0182 µM
- TGI (CAKI-1 renal): 1.16 µM
- GI50 (CCRF-CEM leukemia): 1.5 µM
- TGI (CCRF-CEM leukemia): 20.6 µM
- GI50 (COLO 205 colon): 2.65 µM
- TGI (COLO 205 colon): 7.94 µM
- GI50 (DU-145 prostate): 2.54 µM
- TGI (DU-145 prostate): 6.15 µM
- GI50 (EKVX NSCLC): 4.99 µM
- TGI (EKVX NSCLC): 26.5 µM
- GI50 (HCC-2998 colon): 12.1 µM
- TGI (HCC-2998 colon): 27.8 µM
- GI50 (HCT-116 colon): 3.09 µM
- TGI (HCT-116 colon): 12.7 µM
- GI50 (HCT-15 colon): 2.85 µM
- TGI (HCT-15 colon): 32.2 µM
- TGI (HL-60(TB) leukemia): > 22.3 µM
- GI50 (HOP-62 NSCLC): 5.19 µM
- TGI (HOP-62 NSCLC): 28.8 µM
- GI50 (HOP-92 NSCLC): 6.02 µM
- TGI (HOP-92 NSCLC): 29 µM
- GI50 (HS 578T breast): 2.9 µM
- TGI (HS 578T breast): 16.3 µM
- GI50 (HT29 colon): 3.59 µM
- TGI (HT29 colon): 19.7 µM
- GI50 (IGROV1 ovarian): 1.33 µM
- TGI (IGROV1 ovarian): 6.6 µM
- GI50 (K-562 leukemia): 0.974 µM
- TGI (K-562 leukemia): > 40.3 µM
- GI50 (KM12 colon): 2.59 µM
- TGI (KM12 colon): 7.33 µM
- GI50 (LOX IMVI melanoma): 3.07 µM
- TGI (LOX IMVI melanoma): 13.3 µM
- GI50 (M14 melanoma): 3.4 µM
- TGI (M14 melanoma): 15.1 µM
- GI50 (MALME-3M melanoma): 5.76 µM
- TGI (MALME-3M melanoma): 42.9 µM
- GI50 (MCF7 breast): 2.53 µM
- TGI (MCF7 breast): 13.6 µM
- GI50 (MDA-MB-231 breast): 3.57 µM
- TGI (MDA-MB-231 breast): 12.4 µM
- GI50 (MDA-MB-435): 2.28 µM
- TGI (MDA-MB-435): 6.37 µM
- GI50 (MOLT-4 leukemia): 1.03 µM
- TGI (MOLT-4 leukemia): > 33.1 µM
- GI50 (NCI-H226 lung): 10.8 µM
- TGI (NCI-H226 lung): 33.3 µM
- GI50 (NCI-H23 lung): 4.27 µM
- TGI (NCI-H23 lung): 32.3 µM
- GI50 (NCI-H460 lung): 3.16 µM
- TGI (NCI-H460 lung): 18.7 µM
- GI50 (NCI-H522 lung): 2.69 µM
- TGI (NCI-H522 lung): 9.51 µM
- GI50 (NCI/ADR-RES ovarian): 3.11 µM
- TGI (NCI/ADR-RES ovarian): 11 µM
- GI50 (OVCAR-3 ovarian): 2.33 µM
- TGI (OVCAR-3 ovarian): 5.26 µM
- GI50 (OVCAR-4 ovarian): 12.4 µM
- TGI (OVCAR-4 ovarian): > 100 µM
- GI50 (OVCAR-5 ovarian): 5.39 µM
- TGI (OVCAR-5 ovarian): 27.9 µM
- GI50 (OVCAR-8 ovarian): 4.78 µM
- TGI (OVCAR-8 ovarian): 22.4 µM
- GI50 (PC-3 prostate): 3.95 µM
- TGI (PC-3 prostate): 57.5 µM
- GI50 (RPMI-8226 leukemia): 1.44 µM
- TGI (RPMI-8226 leukemia): 4.65 µM
- GI50 (RXF 393 renal): 2.05 µM
- TGI (RXF 393 renal): 5.18 µM
- GI50 (SF-268 CNS): 2.58 µM
- TGI (SF-268 CNS): 8.31 µM
- GI50 (SF-295 CNS): 2.89 µM
- TGI (SF-295 CNS): 13.5 µM
- GI50 (SF-539 CNS): 2.85 µM
- TGI (SF-539 CNS): 14.9 µM
- GI50 (SK-MEL-2 melanoma): 5.45 µM
- TGI (SK-MEL-2 melanoma): 25.7 µM
- GI50 (SK-MEL-28 melanoma): 6.17 µM
- TGI (SK-MEL-28 melanoma): 19.8 µM
- GI50 (SK-MEL-5 melanoma): 2.31 µM
- TGI (SK-MEL-5 melanoma): 14.7 µM
- GI50 (SK-OV-3 ovarian): 4.35 µM
- TGI (SK-OV-3 ovarian): 30.8 µM
- GI50 (SN12C renal): 3.69 µM
- TGI (SN12C renal): 19 µM
- GI50 (SNB-19 CNS): 14.1 µM
- TGI (SNB-19 CNS): > 73 µM
- GI50 (SNB-75 CNS): 2.75 µM
- TGI (SNB-75 CNS): 22.2 µM
- GI50 (SR leukemia): 0.19 µM
- TGI (SR leukemia): > 24.6 µM
- GI50 (SW-620 colon): 2.13 µM
- TGI (SW-620 colon): 12.2 µM
- GI50 (T-47D breast): 7.84 µM
- TGI (T-47D breast): 67.9 µM
- GI50 (TK-10 renal): 3.21 µM
- TGI (TK-10 renal): 13.6 µM
- GI50 (U251 CNS): 3.23 µM
- TGI (U251 CNS): 16.6 µM
- GI50 (UACC-257 melanoma): 5.64 µM
- TGI (UACC-257 melanoma): > 28.6 µM
- GI50 (UACC-62 melanoma): 6.4 µM
- TGI (UACC-62 melanoma): 21.5 µM
- GI50 (UO-31 renal): 3.23 µM
- TGI (UO-31 renal): 13.5 µM
